Patent US7585895B2, “Therapeutic substituted cyclopentanes” (Allergan, Inc., priority 2005, dated 2009)

What was measured:
Type in all cases: in vivo
Dog ocular hyperemia = details: Conc. 0.1 g/100 mL
Rabbit ocular hyperemia = details: Conc. 0.1 g/100 mL
[1] = Dog intraocular pressure (Max. ΔIOP); details: Canis lupus familiaris, Conc. 0.1 g/100 mL
[2] = Monkey intraocular pressure (Max. ΔIOP); details: Primates, Conc. 0.1 g/100 mL

DOG Max. hpyeremia (Dog ocular hyperemia): 0.6
RABBIT Max. hyperemia (Rabbit ocular hyperemia): 0.25
SMILES: CCCCCCc1ccc([C@@H]2[C@@H](C/C=C\CCCC(=O)O)[C@H](Cl)C[C@H]2O)cc1 [compound 6]
change in vivo at 1000 µg/mL [1]: -43%
change in vivo at 1000 µg/mL [2]: 32%
